Assay results as given in patent publication US20110281285A1, “Assay for Detecting Cathepsin K Activty in Bone, Cartilage and/or Soft Tissue” (priority 2009, published 2011).
Non-standard residues stand in square brackets, D forms with d. No end group written: not given here. Hyp = O=C(O)[C@@H]1C[C@@H](O)CN1

B1: immunizing peptide (SEQ ID NO: 8), comprised in the C-terminal neoepitope C2K of human type II collagen (peptide)
peptide: CGEAGKPG

Columns and labels:
antiserum R771 = assay: Competitive inhibition ELISA for neoepitope specificity of the antiserum; type: binding, rabbit; details: for competition by / binding of the antibody to competing synthetic peptide: competitive inhibition ELISA, FIG. 1A and B
Experimental: A direct enzyme-linked immunosorbent assay (ELISA) assay was used to determine the antibody titer. The antiserum with the highest titer was selected for use. Investigation of the neoepitope specificity of the antiserum was performed by competitive inhibition ELISA as described.^17 The percentage binding and percentage inhibition were calculated for each of the standard peptides and results were expressed on a molar basis.
(§1) Immulon™ 2 plates (VWR International, Montreal, Canada) were coated with the peptide-ovalbumin conjugate (prepared as described above for the hemocyanin conjugate) diluted in phosphate-buffered saline (PBS), pH 7.2, at 3 ng/well (50 μl/well), the optimum concentration as determined by checkerboard analyses. After overnight incubation at 4° C., the plate was washed three times with PBS-0.1% Tween™ 20 and blocked with 100 μl of PBS-1% bovine serum albumin (BSA), at room temperature for 30 minutes. Serial dilutions of the standard peptide containing the epitope that had been used for immunization were prepared and added at 50 μl/well in triplicate to round bottom polypropylene plates used as preincubation plates; the antiserum was diluted 1:12,000 (optimum dilution as determined by checkerboard analyses) in PBS-1% BSA, 0.1% Tween 20, pH 7.2, and added to the plates (50 μl/well). In the nonspecific binding wells 50 μl of PBS-1% BSA and 50 μl of PBS-1% BSA, 0.1% Tween 20 were added; the maximum binding wells contained 50 μl of the diluted antiserum and 50 μl of PBS-1% BSA. After 1 hour incubation at 37° C., 50 μl of each preincubated well was transferred to the Immulon 2 flat-bottom, 96-well microtiter plates. The plates were incubated at 4° C. for 30 minutes and then washed three times with PBS-0.1% Tween 20. Alkaline phosphatase-conjugated goat antirabbit IgG (Sigma, St. Louis, Mo.), diluted 1:1000 in PBS-1% BSA, 0.1% Tween 20 was then added to each well (50 μl/well). The plate was incubated for 1 hour at 37° C., washed three times with PBS-0.1% Tween 20, and once with distilled water. One 5 mg tablet of alkaline phosphatase substrate (Sigma) was dissolved in 10 ml of 8.9 mmol/L diethanolamine buffer, pH 9.8, and added to the plate (50 μl/well). The optical density (405 nm) was read after 1 hour incubation. The detection limit of the newly developed assay was 2.8 ng/ml and the coefficients of variation (% CV) of the intra-assays and inter-assays were <10%. The analytic recovery was 87.2 to 97.3% and the recovery rates for the serial dilution were 92 to 108%.

α-chymotrypsin = biological target: T1, α-chymotrypsin (Bos taurus, UniProt P00766); assay: Treatment of immunizing peptide with α-chymotrypsin; details: 50 ng/ml immunizing peptide solution
T1 construct: purchased Sigma
Experimental: The content of C2K and C2C neoepitopes in cartilage were determined by extraction with α-chymotrypsin (Sigma). This degrades denatured but not intact triple helical collagen, to solubilize the collagen neoepitopes that can then be assayed. Femoral condylar cartilages from 17 normal and 19 OA individuals were washed and digested with α-chymotrypsin, as previously described.^23 The digest was removed and stored at −20° C. until analyzed. To ensure that the cathepsin K-generated neoepitope is not cleaved by α-chymotrypsin, a separate digestion was first performed by treating a 50 ng/ml immunizing peptide solution with α-chymotrypsin as described above. […] The concentration of the neoepitope released from the cartilage in the α-chymotrypsin digests was expressed as pmol of neoepitope/mg wet wt of cartilage (based on the molecular weights of the two neoepitope sequences used as standards in the ELISA assays: 717.8 Da for the C2K neoepitope and 972 Da for C2C).

[1] = biological target: T2, Recombinant human cathepsin K (Homo sapiens, UniProt P43235); assay: Digestion of human Col II with cathepsin K, C2K neoepitope by inhibition ELISA; type: biochemical; details: pH 7.0, 2 μmol/L cathepsin K, peak at 48 hours, versus absence of chondroitin sulfate (FIG. 4)
T2 construct: processed to the mature form and purified as described previously; made in house; host or cells: Pichia pastoris
T2 sequence (P43235 115-329): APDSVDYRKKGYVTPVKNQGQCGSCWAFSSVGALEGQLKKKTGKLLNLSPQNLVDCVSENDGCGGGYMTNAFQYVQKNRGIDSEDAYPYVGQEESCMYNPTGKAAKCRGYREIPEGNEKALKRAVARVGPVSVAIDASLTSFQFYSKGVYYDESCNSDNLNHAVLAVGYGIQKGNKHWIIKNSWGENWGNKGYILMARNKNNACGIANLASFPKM
Experimental: as §1, with “Alkaline phosphatase-conjugated goat antirabbit IgG (Sigma, St. Louis, Mo.), diluted 1:1000 in PBS-1% BSA, 0.1% Tween 20 was then added to each well (50 μl/well). The plate was incubated for 1 hour at 37° C., washed three times with PBS-0.1% Tween 20, and once with distilled water. One 5 mg tablet of alkaline phosphatase substrate (Sigma) was dissolved in 10 ml of 8.9 mmol/L diethanolamine buffer, pH 9.8, and added to the plate (50 μl/well).” left out, “The detection limit of the newly developed assay was 2.8 ng/ml and the coefficients of variation (% CV) of the intra-assays and inter-assays were <10%. The analytic recovery was 87.2 to 97.3% and the recovery rates for the serial dilution were 92 to 108%.” left out

[2] = biological target: antiserum R771 (rabbit polyclonal anti-C2K neoepitope antiserum); assay: competitive inhibition ELISA: free peptide against plate-bound peptide-ovalbumin conjugate, antiserum R771 at 1:12,000

Row | Molecule | competition by / binding of the antibody to competing synthetic peptide (antiserum R771) | further results
1 | (i): one-residue truncation of the immunizing peptide at the C terminus (CGEAGKP; listed as Homo sapiens) | negligible | 
2 | (ii): one-residue extension of the immunizing peptide at the C terminus (CGEAGKPGK; listed as Homo sapiens) | negligible | 
3 | (v): immunizing peptide with deletion of the alanine residue (CGEGKPG; listed as Homo sapiens) | negligible binding | 
4 | (vi): immunizing peptide with glutamic acid and alanine residues inverted (CGAEGKPG; listed as Homo sapiens) | negligible binding | 
5 | CGEAGKPG [immunizing peptide, N-terminal cysteine added] |  | IC50 (antiserum R771; peptide alone as competitive antigen, antiserum R771 diluted 1:12,000, read-out: median inhibitory concentration (IC50) in ELISA inhibition assay): 45 nM; loss of epitope after α-chymotrypsin treatment (α-chymotrypsin): No loss of epitope
6 | chondroitin 4-sulfate [C4S] |  | amount of C2K neoepitope on addition to the digestion buffer [1]: significantly increased
7 | chondroitin 6-sulfate [C6S] |  | amount of C2K neoepitope on addition to the digestion buffer [1]: significantly increased
8 | peptide (iv): N-terminally truncated peptide, deletion of the G (CEAGKPG; listed as Homo sapiens) | some affinity | 
9 | peptide iii: sequence similar to the immunizing peptide, except for the proline residue that was 4-hydroxylated (CGEAGK[Hyp]G) | reduced affinity | 
10 | B1 |  | IC50 [2]: 45 nM
